Laboratory results taken from patent US6660768B2, “Parasiticidal compositions and methods of use” (Schering-Plough Animal Health Corporation, priority 2001, dated 2003).

Legend:
[1] = Example 3A: relative solubility of permethrin in neat solvents, seeded solutions in cold bath, supernatant assayed
Procedure: (§1) These solutions were poured into 100 mL tubes with screw top caps. These tubes were placed in the cold water bath and allowed to come to equilibrium at the temperature of the bath. […] The seeded preparations were then thoroughly shaken, replaced in the bath and allowed to remain in the bath for a 24 hour period. The preparations were then examined for crystallization, then again thoroughly agitated and replaced in the bath for an additional time period. Samples of the supernatant were removed after additional crystallization had occurred.
After 24 hours the tubes were examined for the relative amount of crystallization that may have occurred in each of the solutions. Where crystallization had occurred, samples of the supernatant were pulled from the vials and the temperature of the bath was lowered to 15° C.
Samples were again taken for assay from the solutions of hexylene glycol and methyl Carbitol® (diethylene glycol monomethyl ether).

[2] = Example 3B: solubility of permethrin in PM (propylene glycol monomethyl ether), DM (diethylene glycol monomethyl ether) and PM or DPM (dipropylene glycol monomethyl ether)/d-limonene mixtures at low temperatures, seeded
Procedure: as §1
The solvent mixtures tested were: dipropylene glycol monomethyl ether/d-limonene and propylene glycol monomethyl ether/d-limonene.
These solvent mixtures were evaluated at ratios of 2:1, 1:1, 1:2, and then at 8:2 and 9:1 (the first number refers to one of the glycol ethers, the second number refers to d-limonene).

[3] = Diethylene Glycol Monomethyl Ether, Initial
[4] = Dipropylene Glycol Monomethyl Ether, Initial
[5] = Propylene Glycol Monomethyl Ether, Initial

For CC1(C)C(C=C(Cl)Cl)C1C(=O)OCc1cccc(Oc2ccccc2)c1 (centres unmarked) [permethrin], the Permethrin ([1]; Diethylene Glycol Monomethyl Ether, 20° C.) was 75.02%, the Permethrin ([1]; Diethylene Glycol Monomethyl Ether, 25° C.) was 74.90% and the “Cis Isomer” value [1, 3] was 28.79%. For the same compound, the Permethrin [1, 3] was 69.70%, the “Trans Isomer” value [1, 3] was 40.91% and the Permethrin ([1]; Diethylene Glycol Monomethyl Ether, […] C.) was 74.44%. It also gave a Permethrin ([1]; Dipropylene Glycol Monomethyl Ether, 15° C.) of 73.83%, a Permethrin ([1]; Dipropylene Glycol Monomethyl Ether, 20° C.) of 75.15% and a Permethrin ([1]; Dipropylene Glycol Monomethyl Ether, 25° C.) of 75.39%. For the same compound, the “Cis Isomer” value [1, 4] was 29.41%, the Permethrin [1, 4] was 70.35% and the “Trans Isomer” value [1, 4] was 40.94%. For the same compound, the “solubility among the tested solvents” value ([1]; Examples 3A-3D, low temperatures, order: d-limonene, PM, DPM, diethylene glycol monomethyl ether, hexylene glycol) was “greatest solubility in d-limonene”, the Permethrin ([1]; Hexylene Glycol, 25° C.) was 75.02% and the “Cis Isomer” value ([1]; Hexylene Glycol, Initial) was 29.77%. For the same compound, the Permethrin ([1]; Hexylene Glycol, Initial) was 71.09%, the “Trans Isomer” value ([1]; Hexylene Glycol, Initial) was 41.32% and the Permethrin ([1]; Hexylene Glycol, […] C.) was 74.37%. For the same compound, the Permethrin ([1]; Propylene Glycol Monomethyl Ether, 15° C.) was 74.85%, the Permethrin ([1]; Propylene Glycol Monomethyl Ether, 20° C.) was 74.84% and the Permethrin ([1]; Propylene Glycol Monomethyl Ether, 25° C.) was 75.66%. The “Cis Isomer” value [1, 5] was 29.55%, the Permethrin [1, 5] was 70.78% and the “Trans Isomer” value [1, 5] was 40.22%. For the same compound, the Permethrin ([1]; d-limonene, 20° C.) was 74.84%, the Permethrin ([1]; d-limonene, 25° C.) was 75.29% and the “Cis Isomer” value ([1]; d-limonene, Initial) was 29.54%. For the same compound, the Permethrin ([1]; d-limonene, Initial) was 70.43%, the “Trans Isomer” value ([1]; d-limonene, Initial) was 40.89% and the “% Total Permethrin” value ([2]; 65% permethrin in DPM/d-limonene, 0% d-limonene of solvent mixture, 0° C.) was 58.25%. The “% Total Permethrin” value ([2]; 65% permethrin in DPM/d-limonene, 0% d-limonene of solvent mixture, 5° C.) was 60.53%, the “% Total Permethrin” value ([2]; 65% permethrin in DPM/d-limonene, 10% d-limonene of solvent mixture, 10° C.) was 61.42% and the “% Total Permethrin” value ([2]; 65% permethrin in DPM/d-limonene, 20% d-limonene of solvent mixture, 10° C.) was 63.46%. For the same compound, the “% Total Permethrin” value ([2]; 65% permethrin in DPM/d-limonene, 33% d-limonene of solvent mixture, 0° C.) was 61.65%, the “% Total Permethrin” value ([2]; 65% permethrin in DPM/d-limonene, 33% d-limonene of solvent mixture, 5° C.) was 63.92% and the “% Total Permethrin” value ([2]; 65% permethrin in DPM/d-limonene, 33% d-limonene of solvent mixture, 10° C.) was 64.93%. For the same compound, the “% Total Permethrin” value ([2]; 65% permethrin in DPM/d-limonene, 50% d-limonene of solvent mixture, 0° C.) was 61.55%, the “% Total Permethrin” value ([2]; 65% permethrin in DPM/d-limonene, 50% d-limonene of solvent mixture, 5° C.) was 64.83% and the “% Total Permethrin” value ([2]; 65% permethrin in DPM/d-limonene, 50% d-limonene of solvent mixture, 10° C.) was 64.30%. The “% Total Permethrin” value ([2]; 65% permethrin in DPM/d-limonene, 67% d-limonene of solvent mixture, 0° C.) was 61.33%, the “% Total Permethrin” value ([2]; 65% permethrin in DPM/d-limonene, 67% d-limonene of solvent mixture, 5° C.) was 65.55% and the “% Total Permethrin” value ([2]; 65% permethrin in DPM/d-limonene, 67% d-limonene of solvent mixture, 10° C.) was 64.92%. For the same compound, the “% Total Permethrin” value ([2]; 65% permethrin in DPM/d-limonene, 100% d-limonene of solvent mixture, 0° C.) was 60.27%, the “% Total Permethrin” value ([2]; 65% permethrin in DPM/d-limonene, 100% d-limonene of solvent mixture, 5° C.) was 62.73% and the “% Total Permethrin” value ([2]; 65% permethrin in DPM/d-limonene, 100% d-limonene of solvent mixture, 10° C.) was 65.88%. The “% Total Permethrin” value ([2]; 65% permethrin in PM/d-limonene, 0% d-limonene of solvent mixture, 0° C.) was 52.65%, the “% Total Permethrin” value ([2]; 65% permethrin in PM/d-limonene, 0% d-limonene of solvent mixture, 5° C.) was 59.51% and the “% Total Permethrin” value ([2]; 65% permethrin in PM/d-limonene, 10% d-limonene of solvent mixture, 10° C.) was 62.08%. The “% Total Permethrin” value ([2]; 65% permethrin in PM/d-limonene, 20% d-limonene of solvent mixture, 10° C.) was 64.35%, the “% Total Permethrin” value ([2]; 65% permethrin in PM/d-limonene, 33% d-limonene of solvent mixture, 0° C.) was 59.42% and the “% Total Permethrin” value ([2]; 65% permethrin in PM/d-limonene, 33% d-limonene of solvent mixture, 5° C.) was 63.08%. The “% Total Permethrin” value ([2]; 65% permethrin in PM/d-limonene, 33% d-limonene of solvent mixture, 10° C.) was 63.89%, the “% Total Permethrin” value ([2]; 65% permethrin in PM/d-limonene, 50% d-limonene of solvent mixture, 0° C.) was 61.74% and the “% Total Permethrin” value ([2]; 65% permethrin in PM/d-limonene, 50% d-limonene of solvent mixture, 5° C.) was 64.05%. The “% Total Permethrin” value ([2]; 65% permethrin in PM/d-limonene, 50% d-limonene of solvent mixture, 10° C.) was 64.45%, the “% Total Permethrin” value ([2]; 65% permethrin in PM/d-limonene, 67% d-limonene of solvent mixture, 0° C.) was 61.45% and the “% Total Permethrin” value ([2]; 65% permethrin in PM/d-limonene, 67% d-limonene of solvent mixture, 5° C.) was 64.86%. For the same compound, the “% Total Permethrin” value ([2]; 65% permethrin in PM/d-limonene, 67% d-limonene of solvent mixture, 10° C.) was 65.95%, the “% Total Permethrin” value ([2]; 65% permethrin in PM/d-limonene, 100% d-limonene of solvent mixture, 0° C.) was 60.27% and the “% Total Permethrin” value ([2]; 65% permethrin in PM/d-limonene, 100% d-limonene of solvent mixture, 5° C.) was 62.73%. For the same compound, the “% Total Permethrin” value ([2]; 65% permethrin in PM/d-limonene, 100% d-limonene of solvent mixture, 10° C.) was 65.88%, the “% Total Permethrin” value ([2]; 70% permethrin in DPM/d-limonene, 0% d-limonene of solvent mixture, 0° C.) was 64.24% and the “% Total Permethrin” value ([2]; 70% permethrin in DPM/d-limonene, 0% d-limonene of solvent mixture, 5° C.) was 65.56%. For the same compound, the “% Total Permethrin” value ([2]; 70% permethrin in DPM/d-limonene, 0% d-limonene of solvent mixture, 10° C.) was 66.58%, the “% Total Permethrin” value ([2]; 70% permethrin in DPM/d-limonene, 10% d-limonene of solvent mixture, 10° C.) was 66.95% and the “% Total Permethrin” value ([2]; 70% permethrin in DPM/d-limonene, 20% d-limonene of solvent mixture, 10° C.) was 67.71%. For the same compound, the “% Total Permethrin” value ([2]; 70% permethrin in DPM/d-limonene, 33% d-limonene of solvent mixture, 5° C.) was 69.64% and the “% Total Permethrin” value ([2]; 70% permethrin in DPM/d-limonene, 33% d-limonene of solvent mixture, 10° C.) was 67.38%.
